Values after ≈ are worked out from the molar mass of the structure shown.
Tests used:
[1] = interconversion of the two diastereomers; format: physicochemical; conditions: normal temperatures
panel of fungi = test: broth microdilution assay, comparison with amphotericin B; format: cell-based; conditions: MIC and MFC
Protocol: In the microbroth dilution assay, microorganisms were selected by streaking a yeast culture on Sabouraud dextrose agar (SDA) and incubating for 24-48 hours at 35°-37° C. Three to five characteristic colonies were selected and transferred to a fresh plate and incubated under similar conditions. From the regrowth, 3 to 5 colonies were selected and suspended in 10 milliliters of YM broth (Difco) and incubated for 4 hours at 35°-37° C. shaking at 225 rpm. The 4 hour broth cultures were adjusted optically to 86% transmission resulting in a concentration of 1-5×10^6 cfu/ml which was further diluted 1:100 in YNBD (yeast nitrogen base with 1% dextrose) to obtain a concentration of 1-5×10^4 cfu/ml for use as inocula. […]
The plates containing the diluted compounds were then inoculated with 75 μl/well of the appropriate microorganism and incubated for 48 hours at 35°-37° C. with MIC (minimum inhibitory concentration) determinations carried out after 24 hours of incubation (except Cryptococcus strains which are read at 48 hours). […]
After recording MICs at 24 hours, the microtiter plates were shaken gently to resuspend the cells. […] For Cryptococcus neoformans, SDA plates were inoculated at 48 hours after recording MICs and incubated 48 hours before reading the MFC. […]

[2] = test system: Aspergillus fumigatus (MY5668); test: broth microdilution assay (MIC/MEC); format: cell-based; conditions: 24 hours
Protocol: (§1) In the microbroth dilution assay, microorganisms were selected by streaking a yeast culture on Sabouraud dextrose agar (SDA) and incubating for 24-48 hours at 35°-37° C. Three to five characteristic colonies were selected and transferred to a fresh plate and incubated under similar conditions. From the regrowth, 3 to 5 colonies were selected and suspended in 10 milliliters of YM broth (Difco) and incubated for 4 hours at 35°-37° C. shaking at 225 rpm. The 4 hour broth cultures were adjusted optically to 86% transmission resulting in a concentration of 1-5×10^6 cfu/ml which was further diluted 1:100 in YNBD (yeast nitrogen base with 1% dextrose) to obtain a concentration of 1-5×10^4 cfu/ml for use as inocula.
(§2) The test compound was dissolved at […] in 10% DMSO and diluted 2× into the first well to achieve a concentration of 256 μg/ml at 5% DMSO in the first well. Compounds are subsequently serially diluted 2× and cell suspension is added to each well resulting in an additional 2× dilution of compound. 75 μl of said solution is delivered to each well in column 1 of a 96-well, U-bottomed plate. The compounds in column 1 were then serially diluted two-fold to yield concentrations from 128 μg/ml to 0.03 μg/ml.
(§3) The plates containing the diluted compounds were then inoculated with 75 μl/well of the appropriate microorganism and incubated for 48 hours at 35°-37° C. with MIC (minimum inhibitory concentration) determinations carried out after 24 hours of incubation (except Cryptococcus strains which are read at 48 hours). Growth and sterility controls for each organism and sterility checks for the compounds also were carried out.
(§4) No MFC values are indicated for Aspergillus fumigatus since colony counts are unreliable with filamentous species. Instead, a Minimum Effective Concentration (MEC) is reported. The MEC is defined as the lowest concentration of drug which effects a severe morphological change in the cells. The MEC is scored macroscopically by direct observation of the plate wells after 24 hours and reflects microscopic alterations in cell morphology (Kurtz et al, AAC 1994 38:1480-1489).

[3] = test system: Aspergillus fumigatus (MY4839); test: broth microdilution assay (MIC/MEC); format: cell-based; conditions: 24 hours
Protocol: as §1, §2, §3, §4

[4] = test system: Candida tropicalis (MY1124); test: broth microdilution assay (MIC/MFC); format: cell-based; conditions: 24 hours, 35°-37° C.
Protocol: as §1, §2, §3
(§5) After recording MICs at 24 hours, the microtiter plates were shaken gently to resuspend the cells. A 1.5 μl sample was transferred from each well of the 96-well plate to a single reservoir inoculum plate containing SDA. The inoculated SDA and corresponding microtiter plates were incubated for 24 hours at 35°-37° C. For Cryptococcus neoformans, SDA plates were inoculated at 48 hours after recording MICs and incubated 48 hours before reading the MFC. MFC is the lowest concentration of compound at which either no growth or growth of <4 colonies occur.

Candida albicans (CA2) = test: broth microdilution assay (MIC/MFC); format: cell-based; conditions: 24 hours, 35°-37° C.
Protocol: as §1, §2, §3, §5

[5] = test system: Candida pseudotropicalis (MY2099); test: broth microdilution assay (MIC/MFC); format: cell-based; conditions: Kluyveromyces marxianus, 24 hours, 35°-37° C.
Protocol: as §1, §2, §3, §5

[6] = test system: Candida albicans (MY1055); test: broth microdilution assay (MIC/MFC); format: cell-based; conditions: 24 hours, 35°-37° C.
Protocol: as §1, §2, §3, §5

[7] = test system: Cryptococcus neoformans (MY2062); test: broth microdilution assay (MIC/MFC); format: cell-based
Protocol: as §1, §2, §3, §5

[8] = test system: Candida glabrata (MY1381); test: broth microdilution assay (MIC/MFC); format: cell-based; conditions: Nakaseomyces glabratus, 24 hours, 35°-37° C.
Protocol: as §1, §2, §3, §5

[9] = test system: Saccharomyces cerevisiae (MY2140); test: broth microdilution assay (MIC/MFC); format: cell-based; conditions: 24 hours, 35°-37° C.
Protocol: as §1, §2, §3, §5

[10] = test system: Candida parapsilosis (MY1010); test: broth microdilution assay (MIC/MFC); format: cell-based; conditions: Lodderomyces parapsilosis, 24 hours, 35°-37° C.
Protocol: as §1, §2, §3, §5

Candida krusei = test: broth microdilution assay (MIC/MFC); format: cell-based; conditions: Pichia kudriavzevii, 24 hours, 35°-37° C.
Protocol: as §1, §2, §3, §5

[11] = test system: Cryptococcus neoformans (MY2061); test: broth microdilution assay (MIC/MFC); format: cell-based
Protocol: as §1, §2, §3, §5

[12] = test system: Candida guillermondii (MY1019); test: broth microdilution assay (MIC/MFC); format: cell-based; conditions: 24 hours, 35°-37° C.
Protocol: as §1, §2, §3, §5

[13] = test system: Candida tropicalis (MY1012); test: broth microdilution assay (MIC/MFC); format: cell-based; conditions: 24 hours, 35°-37° C.
Protocol: as §1, §2, §3, §5

[14] = test system: Candida albicans (CLY539); test: broth microdilution assay (MIC/MFC); format: cell-based; conditions: 24 hours, 35°-37° C.
Protocol: as §1, §2, §3, §5

[15] = test system: Aspergillus flavus, Fusarium oxysporum, Ustilago zeae and the like; test: agar plate inhibition zone test against filamentous fungi; format: cell-based; conditions: agar plates, methanol solutions, 28° C. or 37° C., 24 hours
Protocol: The compound is also useful for inhibiting the growth of filamentous fungi. Such use may be illustrated in the following tests with Aspergillus flavus, Fusarium oxysporum, Ustilago zeae and the like. Inocula for filamentous fungi are prepared by scraping the surface of stock plates maintained on potato dextrose agar with a moistened sterile dacron swab. The spores and mycelia are then suspended in 10 milliliters of sterile potato dextrose broth and adjusted to 70 percent transmission at 660 nm. The samples to be tested for production of antifungal agent are applied directly to the agar plates as methanol solutions. When the sample to be tested is crude broth, it may be centrifuged prior to application. The assay plates are then incubated at either 28° C. or 37° C. for 24 hours. Following incubation, the inhibition zones are measured. Effects on growth are also noted as to appearance.

[16] = 35°-37° C., read-out: MIC (minimum inhibitory concentration)
[17] = lowest concentration effecting severe morphological change, read-out: MEC (Minimum Effective Concentration)
[18] = read-out: MIC (minimum inhibitory concentration)
[19] = SDA, no growth or <4 colonies, read-out: MFC (minimum fungicidal concentration)
[20] = SDA inoculated at 48 hours, incubated 48 hours, no growth or <4 colonies, read-out: MFC (minimum fungicidal concentration)
[21] = read at 48 hours, 35°-37° C., read-out: MIC (minimum inhibitory concentration)

## CC(=O)OC1CC23C4=CCC5(C)C(C(=O)O)C(C)(C(C)C(C)C)CCC5(C)C4CCC2C(C)(COC3O)C1OC1OC(CO)C(O)C(O)C1O (stereo not drawn) [Compound I]
[1]
  reequilibration of separated diastereomers: reequilibrate at normal temperatures
Panel of fungi
  effectiveness against a panel of fungi, compared with amphotericin B: at concentrations comparable to an established antifungal agent, amphotericin B
[2]; [16]
  MIC: 32 µg/mL (≈ 45.1 µM)
[2]; [17]
  minimal effective concentration: 0.031 µg/mL
[3]; [16]
  MIC: 64 µg/mL (≈ 90.3 µM)
[3]; [17]
  minimal effective concentration: 0.031 µg/mL
[4]; [18]
  MIC: 16 µg/mL (≈ 22.6 µM)
[4]; [19]
  MFC: 16 µg/mL (≈ 22.6 µM)
Candida albicans (CA2); [18]
  MIC: > 128 µg/mL
Candida albicans (CA2); [19]
  MFC: > 128 µg/mL
[5]; [18]
  MIC: 0.5 µg/mL (≈ 0.705 µM)
[5]; [19]
  MFC: 1 µg/mL (≈ 1.41 µM)
[6]; [18]
  MIC: 0.5 µg/mL (≈ 0.705 µM)
[6]; [19]
  MFC: 0.25 µg/mL (≈ 0.353 µM)
[7]; [20]
  MFC: 128 µg/mL (≈ 181 µM)
[7]; [21]
  MIC: 32 µg/mL (≈ 45.1 µM)
[8]; [18]
  MIC: 1 µg/mL (≈ 1.41 µM)
[8]; [19]
  MFC: 0.5 µg/mL (≈ 0.705 µM)
[9]; [18]
  MIC: 2 µg/mL (≈ 2.82 µM)
[9]; [19]
  MFC: 2 µg/mL (≈ 2.82 µM)
[10]; [18]
  MIC: 0.25 µg/mL (≈ 0.353 µM)
[10]; [19]
  MFC: 0.25 µg/mL (≈ 0.353 µM)
Candida krusei; [18]
  MIC: 4 µg/mL (≈ 5.64 µM)
Candida krusei; [19]
  MFC: 1 µg/mL (≈ 1.41 µM)
[11]; [20]
  MFC: 32 µg/mL (≈ 45.1 µM)
[11]; [21]
  MIC: 32 µg/mL (≈ 45.1 µM)
[12]; [18]
  MIC: 1 µg/mL (≈ 1.41 µM)
[12]; [19]
  MFC: 2 µg/mL (≈ 2.82 µM)
[13]; [18]
  MIC: 1 µg/mL (≈ 1.41 µM)
[13]; [19]
  MFC: 1 µg/mL (≈ 1.41 µM)
[14]; [18]
  MIC: 0.5 µg/mL (≈ 0.705 µM)
[14]; [19]
  MFC: 0.5 µg/mL (≈ 0.705 µM)
[15]
  inhibition of growth of filamentous fungi: effectively inhibit growth of the fungal organisms

Reference: US5756472A, “Antifungal agent obtained from hormonema” (Merck & Co., Inc., priority 1997, dated 1998)
